This is an account of results in patent US20250179057A1, “MEK IMMUNE ONCOLOGY INHIBITORS AND THERAPEUTIC USES THEREOF” (Immuneering Corporation, priority 2022, published 2025).

Series [1] has as its system phospho-MEK in SK-MEL-28 cells. Nature of the series: pMEK/tMEK ratio in SK-MEL-28 melanoma model. It is filed as cell-based. The note with it: SK-MEL-28 (BRAF p.V600E); 100 nM. The procedure: (§1) Compound (drug) treatment: Cells were plated in a 6-well plate at a density of 250,000-300,000 cells/well in 3 mL media and incubated 37° C. in a humidified, 5% CO2 incubator. […] These solutions were added to the cells (3 uL/well), mixed by swirling the plate, and incubated at 37° C. in a humidified, 5% CO2 incubator for 2 hours.
(§2) Cell lysis and protein estimation: Cells were washed with PBS, and scraped in 50 μL of lysis buffer containing protease and phosphatase inhibitors. Cell lysates were stored at −20° C. Cell lysates were thawed and spun at 12,000 rpm for one minute, 3 ul of the supernatant was added to 500 μL of Coomassie blue reagent following by 500 μL of water. […] Protein standards were used (0-20 mg/mL) to calculate protein concentrations of test samples.
(§3) All samples were heated at 95° C. for 5 minutes, cooled to room temperature and spun down. […] After the run, gel was removed and protein transfer was done using iBlot for 7 minutes, as per manufacturer's recommendations. After the transfer, nitrocellulose membrane was incubated on a shaker in 5 mL of blocking buffer at room temperature for 1 hr. The blot was then incubated overnight on a shaker in 5 ml of blocking buffer containing 0.2% Tween-20 and primary antibody, at room temperature. Anti-phospho-STAT3 antibody was used at a dilution of 1:500, the other 3 primary antibodies were used at a dilution of 1:1000.
(§4) Next day, the blot was washed 3 times for 10 min each with 10 mL of TBST followed by incubation on a shaker in 5 ml of blocking buffer containing 0.2% Tween-20 and 0.5 ul of the IRDye labeled secondary antibodies, diluted 1:10000, at room temperature for 1 hr. The blot was then washed 3 times for 10 min each with 10 mL of TBST and dried between sheets of paper towels. Imaging was done using LICOR's Odyssey imaging system, quantitation was done using their software, Image Studio version 3.1.
(§5) The nine models are described in Table 16.

In series [2] the test system is phospho-MEK in MeWo cells. In words: pMEK/tMEK ratio in MeWo melanoma model. It is filed as cell-based. The note with it: MeWo (NF1 LoF); 100 nM. How it is done:
as §1, §2, §3, §4, §5

The test system of series [3] is phospho-ERK in MM127 cells. Nature of the series: pERK/tERK ratio in MM127 melanoma model. It is filed as cell-based. The note with it: MM127 (NRAS p.G13R, BRAF p.G464E); 100 nM. How it is done:
as §1, §2, §3, §4, §5

Series [4] deals with phospho-ERK in SK-MEL-28 cells. Nature of the series: pERK/tERK ratio in SK-MEL-28 melanoma model. It is filed as cell-based. The note with it: SK-MEL-28 (BRAF p.V600E); 100 nM. The procedure: as §1, §2, §3, §4, §5
Series [5] concerns phospho-ERK in MEL-JUSO cells. In words: pERK/tERK ratio in MEL-JUSO melanoma model. Type of series: cell-based. The note with it: MEL-JUSO (HRAS p.G13D, NRAS p.Q61L); 100 nM. How it is done:
as §1, §2, §3, §4, §5

In series [6] the test system is phospho-MEK in MEL-JUSO cells. In words: pMEK/tMEK ratio in MEL-JUSO melanoma model. Type of series: cell-based. The note with it: MEL-JUSO (HRAS p.G13D, NRAS p.Q61L); 100 nM. How it is done:
as §1, §2, §3, §4, §5

The test system of series [7] is phospho-MEK in Hs852.T cells. Nature of the series: pMEK/tMEK ratio in Hs852.T melanoma model. The note with it: Hs852.T (NRAS p.G12V); 100 nM. Type of series: cell-based. How it is done: as §1, §2, §3, §4, §5
Series [8] has as its system phospho-ERK in MeWo cells. Nature of the series: pERK/tERK ratio in MeWo melanoma model. Type of series: cell-based. The note with it: MeWo (NF1 LoF); 100 nM. How it is done:
as §1, §2, §3, §4, §5

The test system of series [9] is phospho-MEK in MM127 cells. In words: pMEK/tMEK ratio in MM127 melanoma model. Type of series: cell-based. The note with it: MM127 (NRAS p.G13R, BRAF p.G464E); 100 nM. The procedure: as §1, §2, §3, §4, §5
Series [10] concerns phospho-MEK in MM415 cells. Nature of the series: pMEK/tMEK ratio in MM415 melanoma model. It is filed as cell-based. How it is done: as §1, §2, §3, §4, §5
Series [11] relates to phospho-MEK in SK-MEL-2 cells. Nature of the series: pMEK/tMEK ratio in SK-MEL-2 melanoma model. It is filed as cell-based. The note with it: SK-MEL-2 (NRAS p.Q61R); 100 nM. How it is done: as §1, §2, §3, §4, §5
Series [12] concerns phospho-ERK in SK-MEL-2 cells. Nature of the series: pERK/tERK ratio in SK-MEL-2 melanoma model. Type of series: cell-based. The note with it: SK-MEL-2 (NRAS p.Q61R); 100 nM. How it is done:
as §1, §2, §3, §4, §5

For series [13] the following is noted: PubChem Compound Summary; cited from earlier work.
The nature of series [14]: Liver microsome stability (% remaining at 1 hour), beagle dog. It is filed as in vitro ADME. The note with it: 2 μM. The procedure:
(§6) Materials and Methods: Individual stock solutions of Test Articles (TA) were prepared at 30 mM in DMSO and were further diluted to 2 mM in DMSO. […] Prior to use in the assay, the 2 mM stock solutions were diluted 10-fold with acetonitrile. The acetonitrile diluted stocks were diluted 1:50 into warm (37° C.) 0.1 M potassium phosphate, pH 7.4, containing 2.0 mM NADPH (2× final assay concentration). Frozen liver microsomes were quick thawed in a 37° C. water bath and then placed on ice. […] The plate was incubated with gentle shaking at 37° C. Duplicate 30 μL aliquots were removed immediately after compound addition (To: time zero) and at 60 minutes. […] The quenched samples were gently mixed and were stored in a −20° C. freezer for at least 30 minutes. […]
(§7) Data Collection and Calculations: Analyst (AB Sciex) and Acquity (Waters) were used for data acquisition. Results were calculated using Microsoft Excel.
(§8) Peak area ratios for IS-normalized test article counts were used to calculate the percent remaining relative to the time zero (T0) value. As appropriate, results were plotted and further analyzed to calculate half-life (T1/2) and CLint values. […]
(§9) Results were plotted [ln (% remaining) vs. incubation time] and further analyzed to calculate half-life (T1/2) values: […]
(In general: Liver microsomes are vesicles of endoplasmic reticulum, rich in cytochrome P450 enzymes.)

Series [15] can be described thus: Liver microsome stability (% remaining at 1 hour), CD-1 mouse. Type of series: in vitro ADME. The note with it: 2 μM. How it is done:
as §6, §7, §8, §9

Series [16] can be described thus: Liver microsome stability (% remaining at 1 hour), human. Type of series: in vitro ADME. The note with it: 2 μM. How it is done:
as §6, §7, §8, §9

Read-outs that look alike come from different tables or passages of the source. Where only a bound is given, the exact number is not on record here.

Turning to `CNS(=O)(=O)Nc1cccc(Cc2c(CN(C)C)c3ccc(OC(=O)N(C)C)cc3oc2=O)c1Cl` [Compound 274, 3-(2-chloro-3-((N-methylsulfamoyl)amino)benzyl)-4-((dimethylamino)methyl)-2-oxo-2H-chromen-7-yl dimethylcarbamate], the “pMEK/tMEK ratio normalized to DMSO” value in series [1] is listed as 0.763; in [2], 0.904; in [6], 0.548; in [7], 0.672; in [9], 0.773; in series [10] (MM415 (NRAS p.Q61L), 100 nM), 0.58. Besides, in series [11], the “pMEK/tMEK ratio normalized to DMSO” value was found to be 0.518. The “pERK/tERK ratio normalized to DMSO” value came out at 0.533 in [3]; 0.745 in series [4]; 0.631 in series [5]; 0.519 in series [8]; 0.439 in series [12].

Regarding `Cn1cnc2c(F)c(Nc3ccc(Br)cc3Cl)c(C(=O)NOCCO)cc21` [Reference-1, Selumetinib], the “pMEK/tMEK ratio normalized to DMSO” value in series [1] stood at 0.984; in series [2], 5.483; in series [6] it was 2.988; in series [7], 4.945; in [9], 2.341; in series [10], 2.386. The “pMEK/tMEK ratio normalized to DMSO” value in series [11] stood at 2.055. The “human plasma drug half-life” value in series [13] is at least 6.2 h. Also, the “Beagle Dog (% Reamining @1 hour)” value in [14] (liver microsomes, 1 hour) is reported as 97.5%. The “pERK/tERK ratio normalized to DMSO” value in [3] worked out at 0.255; in [4], 0.152; in series [5], 0.179; in [8], 0.196; in series [12], 0.191. Besides, the “CD-1 Mouse (% Reamining @1 hour)” value in [15] (liver microsomes, 1 hour) is reported as 13.9%. Further, the “Human (% Reamining @1 hour)” value in series [16] (liver microsomes, 1 hour) is listed as 75.8%.

In the case of `CNS(=O)(=O)Nc1nccc(Cc2c(C)c3ccc(Oc4ncccn4)cc3oc2=O)c1F` [Reference-2, reference compound], the “Beagle Dog (% Reamining @1 hour)” value in [14] (beagle, dog, 1 h, pH 7.4) worked out at 111.6%. Besides, the “CD-1 Mouse (% Reamining @1 hour)” value in series [15] (CD-1, mouse, 1 h, pH 7.4) is 96.0%. Further, the “Human (% Reamining @1 hour)” value in series [16] (human, 1 h, pH 7.4) was found to be 107.1%.
